Where a name gives a salt, the structure may show the parent alone.
molecular target: T1, muscarinic receptor (Cavia porcellus, UniProt H0W1Z3); test: Functional in vitro studies: antagonism of carbachol-induced contraction of urinary bladder smooth muscle strips; assay type: cell-based, guinea pig; conditions: male guinea pig urinary bladder strips; carbachol agonist; 60 min incubation with antagonist; Krebs-Henseleit pH 7.4, 37° C.; KB from dose ratios (Schild); 60 min; read-out: KB-value
T1 construct: Smooth muscle strips of the urinary bladder were dissected in a Krebs-Henseleit solution; from tissue; host or cells: guinea pig urinary bladder smooth muscle strips
T1 sequence (H0W1Z3 1-590): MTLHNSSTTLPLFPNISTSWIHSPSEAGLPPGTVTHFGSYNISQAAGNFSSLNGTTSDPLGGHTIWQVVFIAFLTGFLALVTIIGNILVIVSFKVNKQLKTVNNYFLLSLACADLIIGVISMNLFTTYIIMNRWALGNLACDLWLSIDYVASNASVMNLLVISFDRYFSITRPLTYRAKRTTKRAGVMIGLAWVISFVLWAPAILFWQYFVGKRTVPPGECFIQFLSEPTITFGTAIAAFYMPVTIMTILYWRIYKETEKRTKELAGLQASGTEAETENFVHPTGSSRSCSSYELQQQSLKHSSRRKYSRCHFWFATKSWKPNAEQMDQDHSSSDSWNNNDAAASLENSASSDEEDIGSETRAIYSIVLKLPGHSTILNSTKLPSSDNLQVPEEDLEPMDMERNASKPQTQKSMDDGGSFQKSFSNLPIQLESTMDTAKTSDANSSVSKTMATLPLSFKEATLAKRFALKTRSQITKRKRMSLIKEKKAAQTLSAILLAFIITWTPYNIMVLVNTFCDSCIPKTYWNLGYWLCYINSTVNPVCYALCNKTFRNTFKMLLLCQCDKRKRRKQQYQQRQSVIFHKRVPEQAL
Experimental: Functional in Vitro Studies
Male guinea pigs, weighing about 300 g, were killed by a blow on the neck and exsanguinated. Smooth muscle strips of the urinary bladder were dissected in a Krebs-Henseleit solution (pH 7.4). The strip preparations were vertically mounted between two hooks in thermostatically controlled (37° C.) organ baths (5 ml). One of the hooks was adjustable and connected to a force transducer (FT 03, Grass Instruments). The Krebs-Henseleit solution was continuously bubbled with carbogen gas (93.5% O2 /6.5% CO2) to maintain the pH at 7.4. Isometric tension was recorded by a Grass Polygraph (Model 79D). A resting tension of approximately 5 mN was initially applied on each muscle strip and the preparations were allowed to stabilise for at least 45 min. The resting tension was repeatedly adjusted and the preparations were washed several times during the stabilisation period.
Carbachol (carbamylcholine chloride) was used as the standard muscarinic receptor agonist. In each experiment, the viability of the preparations and the reproducibility of their contractile responses were initially tested by two consecutive additions of a submaximal concentration (3×10^-6 M) of carbachol. A concentration-response curve to carbachol was then generated by cumulative addition of carbachol to the organ-bath (i.e., stepwise increase of the agonist concentration until the maximal contractile response was reached), followed by washing out and a resting period of at least 15 min. before a fix concentration of the test compound (antagonist) was added to the organ-bath. After 60 min. of incubation with the antagonist, a second cumulative concentration-responsecurve to carbachol was generated. Responses were expressed as percent of the maximal response to carbachol. EC50 -values for carbachol in the absence (control) and presence of antagonist were graphically derived and dose ratios (r) were calculated. Dissociation constants, KB, for the antagonists were calculated using equation (1) (Schild, H. I., Br. J. Pharmacol. Chemother. 1949, 4, 277-280), where [A] is the concentration of test compound:

SMILES	Kb
CC(C)N(CC[C@H](c1ccccc1)c1cc(C(O)CO)ccc1O)C(C)C (single isomer, unassigned; (-)) [Example 16, (-)-N,N-Diisopropyl-3(R)-[5-(1(S*),2-dihydroxyethyl) 2-hydroxyphenyl]-3-phenylpropanamine fumarate]	0.032 µM

same assay, conditions: male guinea pig urinary bladder strips; carbachol agonist; 60 min incubation with antagonist; Krebs-Henseleit pH 7.4, 37° C.; KB from dose ratios (Schild); read-out: KB-value

SMILES	Kb
CC(C)N(CC[C@H](c1ccccc1)c1cc(CCC#N)ccc1O)C(C)C [Example 24, (R)-N,N-Diisopropyl-3-[5-(2-cyanoethyl)-2-hydroxyphenyl]-3-phenylpropanamine hydrochloride]	0.00191 µM
CC(C)N(CCC(c1ccccc1)c1nccs1)C(C)C (centres unmarked) [Example 38, N,N-Diisopropyl-3-phenyl-3-(thiazol-2-yl)propanamine hydrochloride]	0.207 µM
CC(C)N(CCC(c1ccccc1)c1ncco1)C(C)C (centres unmarked) [Example 37, N,N-Diisopropyl-3-(oxazol-2-yl)-3-phenylpropanamine hydrochloride]	0.52 µM
CC(C)N(CC[C@H](c1ccccc1)c1cc(CCCO)ccc1O)C(C)C [Example 29, (R) -N,N-Diisopropyl-3-[2-hydroxy-5-(3-hydroxypropyl)phenyl]-3-phenylpropanamine hydrochloride]	0.0015 µM
CC(C)N(CCC(c1ccccc1)c1cncs1)C(C)C (centres unmarked) [Example 40, N,N-Diisopropyl-3-(thiazol-5-yl)-3-phenylpropanamine hydrochloride]	0.814 µM
CC(C)N(CCC(c1ccccc1)c1ccccc1F)C(C)C (centres unmarked) [Example 6, N,N-Diisopropyl-3-(2-fluorophenyl)-3-phenylpropanamine hydrochloride]	0.01 µM
CC(C)N(CC[C@H](c1ccccc1)c1cc(CCCCCCO)ccc1O)C(C)C [Example 17, (R)-[N,N-Diisopropyl-3-[2-hydroxy-5-(6-hydroxyhexyl)phenyl]-3-phenylpropanamine hydrochloride]	0.0035 µM
CN(CCC(c1ccccc1)c1ccccc1O)C1CCC1 (centres unmarked) [Example 31, N-Cyclobutyl-N-methyl-3-(2-hydroxyphenyl)-3-phenylpropanamine hydrochloride]	0.014 µM
CC(C)N(CCC(c1ccccc1)c1cccn1C)C(C)C (centres unmarked) [Example 59, N,N-Diisopropyl-3-(N-methylpyrrol-2-yl)-3-phenylpropanamine fumarate]	0.69 µM
CCN(CC)CCC(c1ccccc1)c1cccs1 (centres unmarked) [Example 50, fumarate]	0.154 µM
CN(CCC(c1ccccc1)c1cccs1)C1CCCCC1 (centres unmarked) [Example 49, N-Cyclohexyl-N-methyl-3-phenyl-3-(2-thienyl)propanamine hydrochloride]	0.59 µM
CC(C)N(CCC(c1ccccc1)c1ccccc1C(F)(F)F)C(C)C (centres unmarked) [Example 4, N,N-Diisopropyl-3-(2-trifluoromethylphenyl)-3-phenylpropanamine hydrochloride]	0.132 µM
CC(C)N(CC[C@H](c1ccccc1)c1cc(N)ccc1O)C(C)C [Example 27, (R)-(N,N-Diisopropyl-3-(5-amino-2-hydroxyphenyl)-3-phenylpropanaminedihydrochloride]	0.0071 µM
CCNCc1ccc(O)c([C@H](CCN(C(C)C)C(C)C)c2ccccc2)c1 [Example 30, N,N-Diisopropyl-3-(5-ethylaminomethyl-2-hydroxyphenyl)-3-phenylpropanamine]	0.139 µM
CC(C)N(CC[C@H](c1ccccc1)c1cc(CCCN)ccc1O)C(C)C [Example 22, (R)-N,N-Diisopropyl-3-[5-(3-aminopropyl)-2-hydroxyphenyl]-3-phenylpropanamine dihydrochloride]	0.0028 µM
CC(C)N(CC[C@@H](c1ccccc1)c1cc(CCO)ccc1O)C(C)C [Example 11, (S)-N,N-Diisopropyl-3-[2-hydroxy-5-(2-hydroxyethyl)phenyl]-3-phenylpropanamine hydrochloride]	0.431 µM
CC(C)N(CCC(c1ccccc1)c1ccccc1N)C(C)C (centres unmarked) [Example 33, N,N-Diisopropyl-3-(2-aminophenyl)-3-phenylpropanamine hydrochloride]	0.056 µM

SMILES	Kb
CC(C)N(CCC(c1ccccc1)c1cnco1)C(C)C (centres unmarked) [Example 35, N,N-Diisopropyl-3-(oxazol-5-yl)-3-phenylpropanamine hydrochloride]	1.77 µM
COC(=O)c1ccc(O)c([C@H](CCN(C(C)C)C(C)C)c2ccccc2)c1 [Example 9, (R)-N,N-Diisopropyl-3-(2-hydroxy-5-methyloxycarbonyl-phenyl)-3-phenylpropanamine hydrochloride]	0.0038 µM
COc1cccc(C(CCN(C(C)C)C(C)C)c2cccs2)c1 (centres unmarked) [Example 45, N,N-Diisopropyl-3-(3-methoxyphenyl)-3-(2-thienyl)propanamine hydrochloride]	0.051 µM
COc1ccc(C(CCN(C(C)C)C(C)C)c2cccs2)c(OC)c1 (centres unmarked) [Example 44, N,N-Diisopropyl-3-(2,4-dimethoxyphenyl)-3-(2-thienyl)propanamine fumarate]	2.29 µM
CC(C)N(CCC(c1ccccc1)c1ccccc1CO)C(C)C (centres unmarked) [Example 10, N,N-Diisopropyl-3-(2-hydroxymethyl)phenyl-3-phenylpropanamine hydrochloride]	0.171 µM
CC(C)N(CC[C@H](c1ccccc1)c1cc(N=[N+]=[N-])ccc1O)C(C)C [Example 28, (R)-N,N-Diisopropyl-3-(5-azido-2-hydroxyphenyl)-3-phenylpropanamine hydrochloride]	0.00855 µM
CC(C)N(CCc1ccc(O)c([C@H](CCN(C(C)C)C(C)C)c2ccccc2)c1)C(C)C [Example 18, (R)-N,N-Diisopropyl-3-[5-(2-diisopropylaminoethyl)-2-hydroxyphenyl]-3-phenylpropanamine hydrochloride]	0.172 µM
Cc1ccc(O)c(C(CCN(C(C)C)C(C)C)c2cccs2)c1 (single isomer, unassigned) [Example 56, (S*) N,N-Diisopropyl-3-(2-hydroxy-5-methylphenyl)-3-(2-thienyl)propanamine]	0.36 µM
CC(=O)NCCCc1ccc(O)c([C@H](CCN(C(C)C)C(C)C)c2ccccc2)c1 [Example 23, (R)-N,N-Diisopropyl-3-[5-3-(acetamidopropyl)-2-hydroxyphenyl]-3-phenylpropanamine hydrochloride]	0.00105 µM
COc1ccccc1C(CCN(C)C(C)C)c1cccs1 (centres unmarked) [Example 47, N-Isopropyl-N-methyl-3-(2-methoxyphenyl)-3-(2-thienyl)propanamine fumarate]	0.091 µM
Cc1ccc(O)c(C(CCN(C)C2CCCCC2)c2ccccc2)c1 (centres unmarked) [Example 3, N-Cyclohexyl-N-methyl-3-(2-hydroxy-5-methylphenyl)-3-phenylpropanamine hydrochloride]	0.236 µM
Cn1cccc1C(CCN1CCCC1)c1ccccc1 (centres unmarked) [Example 60, 3-(N-Methylpyrrol-2-yl)-3-phenyl-1-pyrrolidinopropane fumarate]	0.707 µM
CC(C)N(CCC(c1ccccc1)c1cccs1)C(C)C (centres unmarked) [Example 48, N,N-Diisopropyl-3-phenyl-3-(2-thienyl)propanamine, hydrochloride]	0.031 µM
Cc1ccc(O)c(C(CCN(CCOCCO)C(C)C)c2ccccc2)c1 (centres unmarked) [Example 1, N-(5-Hydroxy-3-oxapentyl)-N-isopropyl-3-(2-hydroxy-5-methylphenyl)-3-phenylpropanamine hydrochloride]	0.499 µM
c1ccc(C(CCN2CCCCC2)c2cccs2)cc1 (centres unmarked) [Example 53, N-[3-Phenyl-3-(2-thienyl)propyl]piperidine hydrochloride]	0.154 µM
c1ccc(C(CCN2CCCC2)c2cccs2)cc1 (centres unmarked) [Example 52, N-[3-Phenyl-3-(2-thienyl)propyl]pyrrolidine fumarate]	0.35 µM
CC(O)c1ccc(O)c([C@H](CCN(C(C)C)C(C)C)c2ccccc2)c1 (stereo partly drawn) [Example 14, N,N-Diisopropyl-3(R)-[2-hydroxy-5-(1-hydroxyethyl)phenyl]-3-phenylpropanamine fumarate]	0.0045 µM
